Reference: PMC8281026, “Peptide Based Inhibitors of Protein Binding to the Mitogen-Activated Protein Kinase Docking Groove” (Frontiers in Molecular Biosciences, 2021)
*1 amine or outer side, *2 acyl side, *3 side chain or, on linkers, in order; H or OH if unused. Where a SMILES comes first, the peptide text is derived from it. Bridges are numbered along the chain shown (N, C = ends). The star is where a group is joined. Dabcyl = CN(C)c1ccc(N=Nc2ccc(C(=O)*)cc2)cc1; TBMB = c1c(C[*:1])cc(C[*:3])cc1C[*:2]; X1 = O=C(C[*:2])[*:1]

Columns and labels:
ERK2 = target: T1, ERK2 (Homo sapiens, UniProt P28482); test: Fluorescence polarization competitive binding assay, ERK2; conditions: for Kd: competitive FP titration against 50 nM Cf-RHDF (gives Ki, used as proxy of Kd), 20 mM Tris pH 8.0, 100 mM NaCl, 0.05% Brij35, 2 mM TCEP, at least 3 independent measurements, read-out: Kd (µM) ± sd, ERK2
T1 construct: made in house; host or cells: Escherichia coli
Method: (§1) ERK2 and p38 proteins used for fluorescence polarization (FP) measurements were recombinantly expressed in Escherichia coli and purified according to Garai et al. The purified and concentrated proteins were subjected to fluorescence polarization based binding measurements ([Garai et al., 2012]) using 50 nM Cf-labeled Cf-RHDF (Cf-SLQRKKPPWLKLDIPSC) and the data was analyzed using OriginPro. For direct measurements the concentration of ERK2 and p38 protein was increased, and for competitive measurements the protein-labeled peptide complex at 60–80% complex formation was titrated with increasing concentration of unlabeled peptide and the amount of the protein-labeled peptide complex (fraction bound) was determined using Cytation 3 (BioTek Instruments) plate reader in 384-well black plates. The direct measurement gives the Kd between the labeled peptide and the MAPK, while the competitive titration experiment with the unlabeled peptide gives the Ki for the unlabeled peptide competing off the labeled peptide, which is a good proxy for the binding affinity of the unlabeled peptide to the protein. All of the FP measurements were performed in assay buffer: 20 mM Tris (pH 8.0), 100 mM NaCl, 0.05% Brij35, and 2 mM TCEP. Fraction bound of the labeled ligand was calculated based on direct binding and competitive binding equations described in ([Roehrl et al., 2004]; [Simon et al., 2020]). The Kd and Ki values were obtained by fitting the FP data, measured in triplicates, to a direct binding equation or to a competitive binding equation using the OriginPro software.

p38α = target: T2, p38α (Homo sapiens, UniProt Q16539); test: Fluorescence polarization competitive binding assay, p38; conditions: competitive FP titration against 50 nM Cf-RHDF (gives Ki, used as proxy of Kd); 20 mM Tris pH 8.0, 100 mM NaCl, 0.05% Brij35, 2 mM TCEP; at least 3 independent measurements; read-out: Kd (µM) ± sd, p38
T2 construct: made in house; host or cells: Escherichia coli
Method: as §1

active ERK2 (pp-ERK2) = active ERK2 (pp-ERK2) (Homo sapiens, UniProt P28482); test: In vitro MAPK activity assay (Nanobit luciferase protein fragment complementation), ERK2; assay type: biochemical; conditions: for EC50: 1 nM pp-ERK2, 2 mM ATP, 50 mM HEPES pH 7.5, initial rates, luminescence, at least 3 independent measurements; for EC50 increase relative to peptide 8: ratio of EC50 values, compared with peptide 8
Method: (§2) In order to determine the inhibitory effect of RHDF-peptides, we used a protein fragment complementation based assay. […] Upon MAPK activity, these two proteins bind and form the active luciferase enzyme oxidizing its substrate (coelenterazine) and ultimately giving some luminescent signal. The initial rates of the reactions were calculated and were compared for the applied inhibitor’s concentration, and then EC50 values were determined using dose response fitting (OriginPro) (see in Supplementary Figure S26). Reactions were carried out in a buffer of 50 mM HEPES, pH 7.5, 100 mM NaCl, 5 mM MgCl2, 0.05% IGEPAL, 50 μM Coelenterazine h, 5% glycerol, 2 mM DTT, 1mM TCEP, 0.5 mg/ml BSA containing 1 nM active ERK2 (pp-ERK2) or p38 (pp-p38α) and were started by the addition of 2 mM ATP. Luminescence was measured using a luminescence plate reader (Cytation 3, BioTek) in white 96-well plates.

p38 (pp-p38α) = p38 (pp-p38α) (Homo sapiens, UniProt Q16539); test: In vitro MAPK activity assay (Nanobit luciferase protein fragment complementation), p38; assay type: biochemical; conditions: 1 nM pp-p38α, 2 mM ATP, 50 mM HEPES pH 7.5; initial rates, luminescence; at least 3 independent measurements
Method: as §2

HEK-293T cells [1] = test: Cellular uptake by fluorescence microscopy; assay type: cell-based; conditions: for cellular uptake: data is not shown; for internalization into HEK-293T cells: fluorescence microscopy, serum-free medium, 37 °C, up to 3 h, Figure 1
Method: (§3) The cellular uptake of the fluorescent labeled peptide into HEK-293T cells were analyzed by fluorescence microscopy (Cytation 3, BioTek Instruments) and two peptides were further examined by confocal laser scanning microscopy (Zeiss LSM-710 system). Cells were incubated with peptides in serum-free medium (DMEM) for 3 h at 37 °C and then washed twice with 200 μl of serum-free medium before analyzing.

HEK-293T cells [2] = test: Intracellular distribution by confocal laser scanning microscopy; assay type: cell-based; conditions: 10 and 20 µM, 3 h
Method: as §3

T1 sequence (P28482 whole entry, species assumed): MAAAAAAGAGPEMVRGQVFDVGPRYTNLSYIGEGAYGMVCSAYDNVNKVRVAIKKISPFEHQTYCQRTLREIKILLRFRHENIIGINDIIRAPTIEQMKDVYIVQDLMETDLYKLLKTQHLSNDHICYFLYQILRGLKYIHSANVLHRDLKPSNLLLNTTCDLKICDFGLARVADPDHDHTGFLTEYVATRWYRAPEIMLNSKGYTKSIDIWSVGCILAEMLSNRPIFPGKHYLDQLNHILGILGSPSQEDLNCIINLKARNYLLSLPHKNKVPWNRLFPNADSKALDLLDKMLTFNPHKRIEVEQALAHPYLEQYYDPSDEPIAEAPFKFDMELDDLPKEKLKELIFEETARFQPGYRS
Sequence of active ERK2 (pp-ERK2) (P28482 whole entry, the tested form may be a part): as the sequence (P28482 whole entry, species assumed) above
T2 sequence (Q16539 whole entry): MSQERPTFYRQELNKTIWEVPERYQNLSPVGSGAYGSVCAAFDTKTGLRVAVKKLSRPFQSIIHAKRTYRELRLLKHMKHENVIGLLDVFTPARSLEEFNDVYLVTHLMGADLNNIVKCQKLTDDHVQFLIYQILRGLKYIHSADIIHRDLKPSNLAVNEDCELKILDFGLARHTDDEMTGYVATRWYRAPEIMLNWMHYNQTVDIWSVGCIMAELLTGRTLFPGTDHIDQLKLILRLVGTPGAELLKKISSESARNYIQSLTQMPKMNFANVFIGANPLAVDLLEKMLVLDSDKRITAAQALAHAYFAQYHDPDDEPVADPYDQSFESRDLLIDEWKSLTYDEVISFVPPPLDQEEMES
Sequence of p38 (pp-p38α) (Q16539 whole entry, the tested form may be a part): as the sequence (Q16539 whole entry) above

For CC[C@H](C)[C@@H]1NC(=O)[C@H](CC(=O)O)NC(=O)[C@H](CC(C)C)NC(=O)[C@H](CCCNC(=N)N)NC(=O)[C@H](CC(C)C)NC(=O)[C@H](Cc2c[nH]c3ccccc23)NC(=O)[C@@H]2CCCN2C(=O)[C@@H]2CCCN2C(=O)[C@@H](NC(=O)[C@H](CCCNC(=N)N)NC(=O)[C@H](CCCNC(=N)N)NC(=O)[C@H](CCCNC(=N)N)NC(=O)c2ccc(N=Nc3ccc(N(C)C)cc3)cc2)CCCCNC(=O)CSC[C@@H](C(N)=O)NC(=O)[C@H](CCCNC(=N)N)NC(=O)[C@H](CCCNC(=N)N)NC1=O [compound 15] (Dabcyl-RRRKPPWLRLDIRRC-NH2; linker 4-15 via X1), which Kd (ERK2) is on record?
Its Kd is 1.5 ± 0.3 µM.

What about the Kd (p38α) of the same molecule?
The Kd was 1.2 ± 0.6 µM.

Which results are given for CC(C)C[C@@H]1NC(=O)[C@H](CCCNC(=N)N)NC(=O)[C@H](CC(C)C)NC(=O)[C@@H](NC(=O)[C@H](Cc2c[nH]c3ccccc23)NC(=O)[C@@H]2CCCN2C(=O)[C@@H]2CCCN2C(=O)[C@H](CCCNC(=N)N)NC(=O)[C@H](CCCNC(=N)N)NC(=O)[C@H](CCCNC(=N)N)NC(=O)c2ccc(N=Nc3ccc(N(C)C)cc3)cc2)CCCCNC(=O)CSC[C@@H](C(N)=O)NC(=O)[C@H](CCCNC(=N)N)NC(=O)[C@H](CCCNC(=N)N)NC(=O)[C@H](CC(=O)O)NC1=O [compound 12] (Dabcyl-RRRPPWKLRLDRRC-NH2; linker 7-14 via X1)?
Kd (ERK2): 4.1 ± 0.3 µM; Kd (p38α): 1.7 ± 0.4 µM

Which “binding enhancement by extension of the C-terminus by two Arg” value (ERK2; ERK2 Kd, compared with peptide 5) does the source give for “H-RRPPWLRLDIRR-NH2 [compound 6, H-RRPPWLRLDIRR-NH 2]” here?
Its value is 3.5 times.

What about the EC50 (active ERK2 (pp-ERK2)) of the same molecule?
The EC50 was 12.9 µM.

What about the “EC50 increase relative to peptide 8” value (active ERK2 (pp-ERK2)) of the same molecule?
The value was 3.7 times.

And the EC50 (p38 (pp-p38α))?
Its EC50 is 3.7 µM.

With CC[C@H](C)[C@H](NC(=O)[C@H](CC(=O)O)NC(=O)[C@H](CC(C)C)NC(=O)[C@H](CCCNC(=N)N)NC(=O)[C@H](CC(C)C)NC(=O)[C@H](Cc1c[nH]c2ccccc12)NC(=O)[C@@H]1CCCN1C(=O)[C@@H]1CCCN1C(=O)[C@H](CCCNC(=N)N)NC(=O)[C@H](CCCNC(=N)N)NC(=O)[C@H](CCCNC(=N)N)NC(=O)c1ccc(/N=N/c2ccc(N(C)C)cc2)cc1)C(=O)N[C@@H](CCCNC(=N)N)C(=O)N[C@@H](CCCNC(=N)N)C(=O)N[C@@H](CCCCN)C(N)=O [compound 10, Dabcyl-RRRPPWLRLDIRRK-NH 2] as the molecule, how does the “EC50 increase relative to peptide 8” value (active ERK2 (pp-ERK2)) read?
Its value is 2.4 times.

For CC[C@H](C)[C@H](NC(=O)[C@H](CC(=O)O)NC(=O)[C@H](CC(C)C)NC(=O)[C@H](CCCCN)NC(=O)[C@H](CC(C)C)NC(=O)[C@H](Cc1c[nH]c2ccccc12)NC(=O)[C@@H]1CCCN1C(=O)[C@@H]1CCCN1C(=O)[C@H](CCCCN)NC(=O)[C@H](CCCCN)NC(=O)[C@H](CCCNC(=N)N)NC(=O)[C@H](CCC(N)=O)NC(=O)[C@H](CC(C)C)NC(=O)[C@@H](N)CO)C(=O)N1CCC[C@H]1C(=O)N[C@@H](CO)C(=O)N[C@@H](CS)C(N)=O [compound 1, H-SLQRKKPPWLKLDIPSC-NH 2], which cellular uptake (HEK-293T cells [1]) is on record?
Its cellular uptake is “poor”.

Which “binding decrease relative to the original peptide” value (ERK2; ERK2 Kd, compared with original peptide 1) does the source give for “H-KKPPWLKLDI-NH2 [compound 4, H-KKPPWLKLDI-NH 2]” here?
The value was 8.3 times.

And the cellular uptake (HEK-293T cells [1])?
Its cellular uptake is “poor”.

What does the source list for CC[C@H](C)[C@@H]1NC(=O)[C@H](CC(=O)O)NC(=O)[C@H](CC(C)C)NC(=O)[C@H](CCCNC(=N)N)NC(=O)[C@H](CC(C)C)NC(=O)[C@@H]2CSCc3cc(cc(c3)CSC[C@H](NC(=O)[C@H](CCCNC(=N)N)NC(=O)[C@H](CCCNC(=N)N)NC(=O)[C@H](CCCNC(=N)N)NC(=O)c3ccc(N=Nc4ccc(N(C)C)cc4)cc3)C(=O)N3CCC[C@H]3C(=O)N3CCC[C@H]3C(=O)N[C@@H](Cc3c[nH]c4ccccc34)C(=O)N2)CSC[C@@H](C(N)=O)NC(=O)[C@H](CCCNC(=N)N)NC(=O)[C@H](CCCNC(=N)N)NC1=O [compound 16] (Dabcyl-RRRCPPWCLRLDIRRC-NH2; linker 4-8-16 via TBMB)?
Kd (ERK2): 0.9 ± 0.2 µM; Kd (p38α): 1.4 ± 0.4 µM

Cf- RRRPPWLRLDIRR-NH 2 [compound 9] was tested. Which intracellular distribution (HEK-293T cells [2]) did it give?
The intracellular distribution was “punctuated”.

What about the “internalization into HEK-293T cells” value (HEK-293T cells [1]) of the same molecule?
Its value is “time and concentration dependent internalization”.

For “H-RRPPWLRLDI-NH2 [compound 5, H-RRPPWLRLDI-NH 2]”, which cellular uptake (HEK-293T cells [1]) is on record?
Its cellular uptake is “poor”.

Which “internalization into HEK-293T cells” value (HEK-293T cells [1]) does the source give for Cf-RRPPWLRLDIRR-NH 2 [compound 7] here?
Its value is “time and concentration dependent internalization”.

Which results are given for “H-RRRPPWLRLDIRR-NH2 [compound 8, H-RRRPPWLRLDIRR-NH 2]”?
EC50 (active ERK2 (pp-ERK2)): 3.5 µM; EC50 (p38 (pp-p38α)): 1.3 µM; Kd (p38α): 1.4 ± 0.3 µM

For CC(C)C[C@@H]1NC(=O)[C@H](CCCNC(=N)N)NC(=O)[C@H](CC(C)C)NC(=O)[C@@H]2CSCc3cc(cc(c3)CSC[C@H](NC(=O)[C@H](CCCNC(=N)N)NC(=O)[C@H](CCCNC(=N)N)NC(=O)[C@H](CCCNC(=N)N)NC(=O)c3ccc(N=Nc4ccc(N(C)C)cc4)cc3)C(=O)N3CCC[C@H]3C(=O)N3CCC[C@H]3C(=O)N[C@@H](Cc3c[nH]c4ccccc34)C(=O)N2)CSC[C@@H](C(N)=O)NC(=O)[C@H](CCCNC(=N)N)NC(=O)[C@H](CCCNC(=N)N)NC(=O)[C@H](CC(=O)O)NC1=O [compound 17] (Dabcyl-RRRCPPWCLRLDRRC-NH2; linker 4-8-15 via TBMB), which Kd (ERK2) is on record?
Its Kd is 4.5 ± 0.6 µM.

And the Kd (p38α)?
The Kd was 3.2 ± 0.7 µM.

How did the Kd (ERK2) turn out when CC(C)C[C@@H]1NC(=O)[C@H](CCCNC(=N)N)NC(=O)[C@H](CC(C)C)NC(=O)[C@H](Cc2c[nH]c3ccccc23)NC(=O)[C@@H]2CCCN2C(=O)[C@@H]2CCCN2C(=O)[C@H](CCCNC(=N)N)NC(=O)[C@H](CCCNC(=N)N)NC(=O)[C@H](CCCNC(=N)N)NC(=O)[C@@H](NC(=O)c2ccc(N=Nc3ccc(N(C)C)cc3)cc2)CCCCNC(=O)CSC[C@@H](C(N)=O)NC(=O)[C@H](CCCNC(=N)N)NC(=O)[C@H](CCCNC(=N)N)NC(=O)[C@H](CC(=O)O)NC1=O [compound 14] (Dabcyl-KRRRPPWLRLDRRC-NH2; linker 1-14 via X1) was run?
Its Kd is 5.1 ± 0.4 µM.

And the Kd (p38α)?
The Kd was 2.1 ± 0.6 µM.

Which results are given for CC(C)C[C@@H]1NC(=O)[C@H](CCCNC(=N)N)NC(=O)[C@H](CC(C)C)NC(=O)[C@H](Cc2c[nH]c3ccccc23)NC(=O)[C@@H]2CCCN2C(=O)[C@@H]2CCCN2C(=O)[C@@H](NC(=O)[C@H](CCCNC(=N)N)NC(=O)[C@H](CCCNC(=N)N)NC(=O)[C@H](CCCNC(=N)N)NC(=O)c2ccc(N=Nc3ccc(N(C)C)cc3)cc2)CCCCNC(=O)CSC[C@@H](C(N)=O)NC(=O)[C@H](CCCNC(=N)N)NC(=O)[C@H](CCCNC(=N)N)NC(=O)[C@H](CC(=O)O)NC1=O [compound 13] (Dabcyl-RRRKPPWLRLDRRC-NH2; linker 4-14 via X1)?
Kd (ERK2): 1 ± 0.2 µM; Kd (p38α): 1 ± 0.7 µM
